The record followed here is patent US5215889A, “Catalytic and reactive polypeptides and methods for their preparation and use” (The Regents of the University of California, priority 1989, dated 1993).

As a reminder, the Ki is a dissociation constant, usually derived from enzyme kinetics or from competition with a known ligand. Read a high Ki as a looser hold on the target. In general, Kd refers to the equilibrium constant for the complex coming apart. What is called Km is the substrate concentration at which the rate is half of its maximum. In general, kcat refers to the number of substrate molecules converted per active site and unit of time at saturation.

Bounds are passed on as bounds.

The target in data set [1] is T1, MOPC315 Fab, thiolated (affinity-labeled with 2 and cleaved; free thiol at lysine 52H) (Mus musculus, UniProt P01729+P01822+P01878).
T1 construct: made in house; host or cells: Fab by papain digestion of reduced and alkylated MOPC315 IgA (murine myeloma)
Put plainly: Thiolysis of DNP coumarin ester by thiolated Fab. Format: biochemical, murine. Here is the method: Cleavage of DNP coumarin esters 14 and 15 by the thiol-containing antibodies was assayed in the presence of 0.1M NaCl, 50 mM sodium phosphate, pH 7.0, with 24 μM dithiothreitol at 10° C. The release of free coumarin was quantitated fluorometrically, exciting at 355 nm and measuring emission at 455 nm. The S-thiopyridyl Fab was first dialyzed against assay buffer, 30 min. prior to the assays, an aliquot of the thiopyridyl Fab (0.15 mg in 0.19 ml) was reduced with 3.8 mM dithiothreitol at 20° C. For each assay, reduced, thiolated Fab (15 μg in 18.8 μl) was diluted with assay buffer (2.95 ml) so that the net concentrations of thiolated Fab and of dithiothreitol were 0.1 μM and 24 μM, respectively. After equilibrating, the substrate was added (30 μl of a stock solution in acetonitrile) and the solution mixed for 10 sec. before monitoring fluorescence change. Antibody rates were corrected by subtracting the rate of cleavage in the absence of Fab.
The reaction kinetics are consistent with the formation of a Michaelis complex (FIG. 6). […] Neither the uncleaved affinity-labeled antibody nor the iodoacetamide-alkylated antibody accelerated the rate of the thiolysis reaction above the background rate. The stoichiometry of product release corresponded to 1.0 coumarin to 1.0 Fab-SH. […]

Another data set concerns the target underivatized MOPC 315. Put plainly: Fluorescence quenching binding in PBS. On the set-up: species or system murine. How it is done:
The hydrolysis of coumarin esters 1a-1d (FIG. 9) by the semisynthetic antibody was assayed in the presence and absence of 1 μM derivatized Fab at varying pH, at 30° C. (Morpholineethanesulfonic acid (100 mM) as used as the buffer in the range of pH 5 to 7. Sodium phosphate (100 mM) was used in the range of pH 6 to 8 and tris-HCl (100 mM) was used in the range of pH 7 to 9.) The release of free coumarin was quantitated fluorometrically, exciting at 355 nm and measuring emission at 455 nm. Antibody rates were corrected by subtracting the rate of cleavage in the absence of antibody. […] This value is almost identical to the KD (5 μM) for the binding of N-DNP-glycine to underivatized MOPC 315, (determined by fluorescence quenching in PBS). […] At pH>8, the unmodified Fab slightly accelerates the cleavage of ester 1b in a stoichiometric reaction, presumably involving modification of an amino acid side chain near the binding site. However, this reaction is not observed in the catalysis by the imidazole-derivatized antibody, where the reactive antibody side-chain is probably inaccessible. The catalytic activity of the semisynthetic antibody is destroyed by treatment with diethylpyrocarbonate, an imidazole-specific reagent. […]

The subject of data set [2] is antibody 15F1-3B1 (IgG, thymine dimer specific). Put plainly: Antibody-sensitized photocleavage of thymine dimer. Format: biochemical, Balb/c mice. How it is done:
Solutions of carboxymethylthymine dimer 1 were irradiated with 300 nm light in the presence of antibody; and dimer cleavage was assayed spectrophotometrically as follows. Deoxygenated solutions of thymine dimer (5-300 μM) and antibody (3 μM) in 100 mM NaCl, 10 mM phosphate buffer, pH 7.5 were irradiated at 18°-20° C. in a 1 mL quartz cuvette. All photolysis experiments were performed with a 1000 W high pressure Hg-Xe lamp equipped with a Photon Technologies International, Inc. Model Q5001 Quantacount electronic actinometer and a diffraction grating monochromator blazed at 500 nm. A bandpass of 3 nm was used for both kinetic and photon counting experiments. […] Monomer formation was assayed spectrophotometrically at fixed time intervals (λmax =272 nm, log ε=3.90).

For data set [3], the target named is T2, MOPC315 Fv variant Fv(Y34HL), Tyr 34L to His (Mus musculus, UniProt P01729+P01822, Y53H).
T2 construct: Antibody-derived VH was prepared by denaturing ion exchange chromatography of authentic MOPC315 Fv, obtained from pepsin digestion of purified IgA; lambda cII fusion with Factor Xa site (IleGluGlyArg) (N, cleaved yes); made in house; host or cells: VL: E. coli MZ1 (cII fusion, inclusion bodies); VH: pepsin-cleaved MOPC315 IgA from mouse ascites
Put plainly: Hydrolysis of DNP coumarin esters 1-3 by Fv. Format: biochemical, murine. To be noted: pH 6.8; SE (n = 3). How it is done:
(§1) FIG. 22 is a Lineweaver-Burke plot of initial rate data obtained for the hydrolysis of 1 as described in Example 6 of the Experimental section herein. Four μl of a 100-fold concentrated solution of substrate 1 in DMSO was added to the 400 μl of Fv (115 nM) in buffer A while monitoring 7-hydroxycoumarin fluorescence at 25° C. (excitation:355nm; emission: 457 nm). A standard of 7-hydroxycoumarin was added at the completion of each assay to assess quenching of coumarin fluorescence by DNP at high substrate concentrations. The buffer background rate was subtracted from the initial rates. Each point represents the average velocity of at least duplicate experiments. Factor X, Factor Xa, or Russell's viper venom had no hydrolytic activity towards 1.
(§2) The ability of wild type and mutant Fvs to hydrolyze esters 1-3 was assayed by measuring the rate of coumarin release fluorimetrically at pH 6.8 (Pollack et al. (1988) supra; Pollack (1989) supra). […] Under these conditions, Fv(Y34HL) turns over at least 11 times and still retains 44% of its activity. The loss of activity is likely due to the accumulation of the inhibitory reaction product 8. […] Ester 2 was a poor substrate (kcat (2)=0.015 min^-1); and the hydrolysis of 3 was not accelerated (kcat (3)<0.005 min^-1). […] The initial rate of hydrolysis of 1 by Fv(Y34HL) at pH 6.8 is approximately 45-fold faster than the reaction with either […] (Table 2). At pH 8.7, the reactivity of Fv(Y34HL) and Fv(315) both increase, but differentially (v[Fv(Y34HL ]/v[Fv(315)]=3.3, at 10 μM 1). Under these conditions Fv(Y34HL) catalytically hydrolyzes 1 while Fv(315) reacts stoichiometrically. The increased reactivity of Fv(315) at higher pH may be due to deprotonation of the tyrosine hydroxyl and subsequent transesterification to form a relatively stable phenol ester.

For data set [4], the target named is T3, MOPC315 Fv, wild type, Fv(315) (Mus musculus, UniProt P01729+P01822).
T3 construct: The Fv fragment (26 kD) is a heterodimer consisting of two peptides, VH (14 kD) and VL (12 kD); made in house; host or cells: MOPC315 myeloma ascites (Balb/c mice), IgA cleaved with pepsin
Put plainly: Hydrolysis of DNP coumarin esters 1-3 by Fv. Format: biochemical, murine. Particulars: pH 6.8. Here is the method: as §1, §2

The subject of data set [5] is monoclonal antibody (IgG) generated against hapten 2 (benzylamine 2). Put plainly: Antibody-catalyzed elimination of HF from β-fluoroketone. Format: biochemical, Balb/c mice. How it is done:
Solutions of substrate 1 were incubated with 2 μM Ig at 37° C. in 10 mM Bis-tris-HCl, 100 mM NaCl pH 6.0, at substrate concentration between 50 and 500 μM. Protein molarity was determined by absorbance at 280 nm using ε^0.1% =1.37 and a molecular weight of 150 kD for IgG. Elimination was followed spectrophotometrically. […] One of these antibodies was characterized further. […] The kinetics of the reaction are consistent with the simple Michaelis-Menten rate expression: [drawing 3] These values afford a kcat /kuncat of 1480 at pH 6.0.
Values of Ki were determined at 10 mM Bis-tris-HCl, 100 mM NaCl, pH 6.0 (37° C.). Substrate concentrations were 200 and 500 μM, Ig concentration was 2 μM, hapten concentration was […] to 1 μM.
The pH dependence of kcat was also determined under the same reaction conditions. Values of kcat are as follows: kcat =0.083 min^-1 at pH 5.5, kcat =0.11 at pH 5.75, kcat =0.188 at pH 6.0, kcat =0.3 at pH 6.5 and kcat =0.43 at pH 7.5. A plot of kcat vs. kcat [H^+ ] gives a pKa of 6.1 for the active site base. It is very likely that this corresponds to a high pKa carboxylate based on the strategy for generating the antibody. Chemical modification experiments with diazoacetamide support this hypothesis.

In data set [6] the target is T4, MOPC315 Fab, thiolated (labeled with bromoketone 4; tyrosine 34L derivatized) (Mus musculus, UniProt P01729+P01822+P01844).
T4 construct: made in house; host or cells: Fab by papain digestion of reduced and alkylated MOPC315 IgA (murine myeloma)
Put plainly: Fluorescence quenching binding of substrate by thiolated Fab. On the set-up: species or system murine. From the text:
The reaction kinetics are consistent with the formation of a Michaelis complex (FIG. 6). […] Neither the uncleaved affinity-labeled antibody nor the iodoacetamide-alkylated antibody accelerated the rate of the thiolysis reaction above the background rate. The stoichiometry of product release corresponded to 1.0 coumarin to 1.0 Fab-SH. […] However, the introduction of both a thiol and a general base into the label may lead to a catalytic system (Bruice (1959) J. Am. Chem. Soc. 81:5444 and Street et al. (1985) J. Am. Chem. Soc. 107:7669).

Substrate in data set [7]: O=C(CCNc1ccc([N+](=O)[O-])cc1[N+](=O)[O-])Oc1ccc2ccc(=O)oc2c1
Put plainly: Hydrolysis of DNP coumarin esters 1-3 by Fv. Format: biochemical, murine. To be noted: other: pH 6.8, 25° C. Here is the method: as §1, §2

Substrate in data set [8]: O=C(CCCCNc1ccc([N+](=O)[O-])cc1[N+](=O)[O-])Oc1ccc2ccc(=O)oc2c1
Put plainly: Hydrolysis of DNP coumarin esters 1-3 by Fv. Format: biochemical, murine. To be noted: other: pH 6.8, 25° C. How it is done: as §1, §2

T1 sequence (P01822+P01878 fused): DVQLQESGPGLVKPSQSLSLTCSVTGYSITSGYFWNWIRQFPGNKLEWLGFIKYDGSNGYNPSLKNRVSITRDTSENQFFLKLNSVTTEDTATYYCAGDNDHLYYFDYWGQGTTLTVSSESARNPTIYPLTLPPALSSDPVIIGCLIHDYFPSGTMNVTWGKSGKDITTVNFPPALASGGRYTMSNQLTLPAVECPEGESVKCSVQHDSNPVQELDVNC
T1 sequence (P01729 20-129): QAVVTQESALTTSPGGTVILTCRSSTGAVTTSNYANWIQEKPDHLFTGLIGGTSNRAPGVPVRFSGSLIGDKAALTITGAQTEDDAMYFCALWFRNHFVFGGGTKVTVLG
T3 sequence (P01729 20-129, one chain of several): as the sequence (P01729 20-129) above
T4 sequence (P01729+P01844 fused, one chain of several): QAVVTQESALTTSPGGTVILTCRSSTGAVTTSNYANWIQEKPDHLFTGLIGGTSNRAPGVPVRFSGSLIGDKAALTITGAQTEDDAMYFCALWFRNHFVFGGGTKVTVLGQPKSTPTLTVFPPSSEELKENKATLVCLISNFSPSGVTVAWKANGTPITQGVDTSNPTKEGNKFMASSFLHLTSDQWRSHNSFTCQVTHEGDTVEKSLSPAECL

Take `O=C(O)CNc1ccc([N+](=O)[O-])cc1[N+](=O)[O-]` [DNP-glycine, N-DNP-glycine]: in [1], the inhibition constant (Ki) came to 8 µM. Also, at underivatized MOPC 315, binding was put at a Kd of 5 µM.

Take `C[C@]12C(=O)NC(=O)N(CC(=O)O)[C@H]1[C@H]1N(CC(=O)O)C(=O)NC(=O)[C@]12C` [dimer 1, carboxymethylthymine-(cis,syn)cyclobutane dimer]: the “kcat /Km” value in [2] (300 nm irradiation, pH 7.5) was found to be 3000 M⁻¹ s⁻¹. Moreover, the Km in [2] (300 nm irradiation, pH 7.5, 18°-20° C.) came to 6.5 µM. The turnover number (kcat) in data set [2] (300 nm, incident flux 1.26×10^-7 einsteins min^-1, pH 7.5, 18°-20° C.) was 0.02 s⁻¹.

`O=C(CCCCCNc1ccc([N+](=O)[O-])cc1[N+](=O)[O-])Oc1ccc2ccc(=O)oc2c1` [compound 2]: the “kcat (Table 2, Fv(Y34HL))” value in [3] is recorded as 0.015 min. Further, the “kcat (Table 2, Fv(315))” value in data set [4] was determined as 0.005 min.

Turning to `CC(=O)CC(F)c1ccc([N+](=O)[O-])cc1` (racemic) [substrate 1, (R,S) 4-Fluoro-4-p-nitro phenylbutan-2-one], the kcat in data set [5] (pH 5.5) was 0.00138 s⁻¹; in [5] (pH 5.75), 0.00183 s⁻¹; in [5] (pH 6.0, 37° C.), 0.00313 s⁻¹; in data set [5] (pH 6.5), 0.005 s⁻¹; in data set [5] (pH 7.5), 0.00717 s⁻¹. In addition, the Km in data set [5] (pH 6.0, 37° C.) came out at 182 µM.

On to `O=C(CCNc1ccc([N+](=O)[O-])cc1[N+](=O)[O-])Oc1ccc2ccc(=O)oc2c1` [compound 3], for which, in [3], the “kcat (Table 2, Fv(Y34HL))” value was less than 0.005 min.

As for `CC(=O)Oc1ccc([N+](=O)[O-])cc1[N+](=O)[O-]` [DNP-acetate], the “binding of substrate (fluorescence quenching)” value in [6] was “did not bind the substrate with appreciable affinity”.

B1: MOPC315 Fv variant Fv(Y34HL), Tyr 34L to His (Mus musculus; Y53H) (protein)
chain 1: QAVVTQESALTTSPGGTVILTCRSSTGAVTTSNHANWIQEKPDHLFTGLIGGTSNRAPGVPVRFSGSLIGDKAALTITGAQTEDDAMYFCALWFRNHFVFGGGTKVTVLGQPKST
chain 2: DVQLQESGPGLVKPSQSLSLTCSVTGYSITSGYFWNWIRQFPGNKLEWLGFIKYDGSNGYNPSLKNRVSITRDTSENQFFLKLNSVTTEDTATYYCAGDNDHLYYFDYWGQGTTLTVSS
notes: Antibody-derived VH was prepared by denaturing ion exchange chromatography of authentic MOPC315 Fv, obtained from pepsin digestion of purified IgA; lambda cII fusion with Factor Xa site (IleGluGlyArg) (N, cleaved yes); made in house; host or cells: VL: E. coli MZ1 (cII fusion, inclusion bodies); VH: pepsin-cleaved MOPC315 IgA from mouse ascites
As for B1, the catalytic constant (kcat) in data set [7] is 8.3e-05 s⁻¹. Further, in data set [8], the Km was found to be 2.2 ± 0.2 µM, the catalytic constant (kcat) is 0.003 ± 0.0005 s⁻¹ and the kcat/Km is reported as 8.2×10^4 m^-1 min^-1.
